What all share (format): cell-based
The target in assay [1] is T1, GPR3 (Homo sapiens, UniProt P46089).
T1 construct: expressed in transfected cells; host or cells: CHO cells
Briefly: GPR3 antagonist functional cAMP assay (LANCE Ultra cAMP TR-FRET, CHO cells stably expressing GPR3). In outline: (§1)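 Compounds, at 0.1% final DMSO, acted on the cells for 45 minutes at 37 °C in the presence of the phosphodiesterase inhibitor Ro 20-1724 (150 μM). After lysis and detection, plates were shaken 1 h at room temperature and emission at 665 nm was recorded. Normalized data gave IC50 values.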

Assay [2] concerns the target T2, hERG (Homo sapiens, UniProt Q12809).
T2 construct: expressed in transfected cells; host or cells: HEK293
Description: hERG assay (whole-cell manual patch clamp, stably-transfected HEK293/hERG cells). The settings on record: tail current, test concentrations 0.1-30 μM, read-out: hERG Assay GMean IC50. The protocol:
Stably-transfected HEK293/hERG cells were seeded on poly-ornithine coated glass coverslip and incubated 3-24 h in 35 mm dishes before transferring to the recording chamber. The recording chamber on the stage of a Nikon inverted microscope is continuously perfused with extracellular solution (1-1.5 ml/min). Electrodes were pulled, polished and filled with intracellular solution (tip resistance ˜3-5MΩ). After establishing a tight seal (resistances 1GΩ) between pipette tip and cell membrane, a brief suction is applied to rupture the patched membrane to establish the whole-cell patch clamp configuration. Cells are voltage clamped at −80 mV. The cell was first depolarized to +40 mV for 2s to activate hERG current, and then clamped to −40 mV for 3s to record a tail current. Test articles in various concentrations controlled by a voltage command 8 pinch valve superfusion system were delivered to the proximity of the test cell to record hERG current changes under different conditions with recording done within 30 min.
Intracellular solution (in mM): 130 KCl, 1.0 MgCl2, 5.0 EGTA, 10 HEPES, 5.0 Mg-ATP; adjust pH to 7.25 with 1M KOH; osmolarity approximately at 280 mOsm. Extracellular solution (in mM): 137 NaCl, 1.8 CaCl2, 1.0 MgCl2, 4.0 KCl, 10 Glucose, 10 HEPES; adjust pH to 7.4 with 1 M NaOH; osmolarity approximately at 295 mOsm. Original compound was dissolved in 100% DMSO, then serial diluted with DMSO to respective 1000× of test concentration to make DMSO sub-stocks. The DMSO sub-stocks were diluted 1000 fold to testing solutions (0.1, 0.3, 1, 3, 10, and 30 μM) using extracellular solution. Rapid exposure to test compound was achieved by utilizing a multichannel solenoid-operated flow system. Testing compounds were sequentially applied in increasing order of concentrations after initial application of vehicle solution on EPC-10 manual patch clamping device with the following: • Amplifier: HEKA EPC-10 USB • Nikon Ti-S Inverted Microscope • MP-285/R micromanipulator system • DAD-8VCPP voltage command Pinch valve superfusion system • TMC Shock Absorption Platform • Peristaltic Pump • Sutter Puller • Vapor pressure osmometer • Temperature controller
(In general: Block of hERG is tested as a sign of cardiac risk.)

The target of assay [3] is T3, GPR6 (Homo sapiens, UniProt P46095).
T3 construct: expressed in transfected cells; host or cells: CHO cells
Description: GPR6 antagonist functional cAMP assay (LANCE Ultra cAMP TR-FRET, CHO cells stably expressing GPR6). In short, it runs like this: as §1
In general terms: Cyclic AMP is a second messenger, typically raised through Gs and lowered through Gi signalling.

The mark [4] stands for this setting: CHO cells stably expressing GPR3, cAMP assay.
Setting [5] is: CHO cells stably expressing GPR6, cAMP assay.
Where [6] appears, read: CHO cells stably expressing GPR3, cAMP assay (Example 24).
Where [7] appears, read: CHO cells stably expressing GPR6, cAMP assay (Example 24).
Setting [8] is: procedure as described in Example 24.

T1 sequence (P46089 whole entry, species assumed): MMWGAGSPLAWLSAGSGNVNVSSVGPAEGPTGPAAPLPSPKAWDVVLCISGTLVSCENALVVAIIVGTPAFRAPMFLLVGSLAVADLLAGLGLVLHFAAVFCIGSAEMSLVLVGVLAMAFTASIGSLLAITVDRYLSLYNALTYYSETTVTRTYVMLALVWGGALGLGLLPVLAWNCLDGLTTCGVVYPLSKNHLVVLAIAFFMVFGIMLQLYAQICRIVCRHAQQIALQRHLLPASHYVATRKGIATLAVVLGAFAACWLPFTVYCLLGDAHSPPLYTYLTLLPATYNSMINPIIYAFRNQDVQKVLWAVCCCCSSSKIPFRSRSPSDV
T2 sequence (Q12809 whole entry): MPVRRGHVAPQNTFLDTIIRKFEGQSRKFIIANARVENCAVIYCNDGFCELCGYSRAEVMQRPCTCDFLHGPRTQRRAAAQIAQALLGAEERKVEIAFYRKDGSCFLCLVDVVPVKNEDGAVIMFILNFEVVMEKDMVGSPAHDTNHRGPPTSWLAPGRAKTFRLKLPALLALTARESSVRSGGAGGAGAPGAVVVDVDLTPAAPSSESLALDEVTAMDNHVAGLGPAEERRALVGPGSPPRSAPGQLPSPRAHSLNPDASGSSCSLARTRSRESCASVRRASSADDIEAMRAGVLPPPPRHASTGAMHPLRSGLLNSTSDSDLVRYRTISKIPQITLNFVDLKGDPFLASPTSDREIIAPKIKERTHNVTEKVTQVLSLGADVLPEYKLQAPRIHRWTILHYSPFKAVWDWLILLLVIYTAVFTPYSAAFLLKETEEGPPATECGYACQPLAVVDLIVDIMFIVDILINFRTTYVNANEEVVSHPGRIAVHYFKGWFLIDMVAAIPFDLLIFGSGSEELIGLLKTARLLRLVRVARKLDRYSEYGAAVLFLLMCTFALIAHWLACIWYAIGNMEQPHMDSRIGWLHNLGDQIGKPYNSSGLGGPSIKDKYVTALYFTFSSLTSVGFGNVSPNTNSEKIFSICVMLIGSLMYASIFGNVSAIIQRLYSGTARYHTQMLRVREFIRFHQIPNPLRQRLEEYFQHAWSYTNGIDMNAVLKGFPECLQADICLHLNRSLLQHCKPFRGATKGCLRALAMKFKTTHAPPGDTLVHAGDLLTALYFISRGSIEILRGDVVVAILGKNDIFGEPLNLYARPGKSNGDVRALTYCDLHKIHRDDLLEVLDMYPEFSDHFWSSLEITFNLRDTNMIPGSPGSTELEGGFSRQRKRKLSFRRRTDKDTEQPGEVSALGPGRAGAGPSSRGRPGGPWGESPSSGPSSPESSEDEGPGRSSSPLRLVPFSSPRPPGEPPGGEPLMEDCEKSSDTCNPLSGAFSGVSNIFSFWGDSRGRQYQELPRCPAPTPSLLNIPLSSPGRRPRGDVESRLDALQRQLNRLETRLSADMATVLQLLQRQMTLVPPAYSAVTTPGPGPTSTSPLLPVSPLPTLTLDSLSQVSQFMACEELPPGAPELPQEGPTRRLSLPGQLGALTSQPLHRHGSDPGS
T3 sequence (P46095 whole entry): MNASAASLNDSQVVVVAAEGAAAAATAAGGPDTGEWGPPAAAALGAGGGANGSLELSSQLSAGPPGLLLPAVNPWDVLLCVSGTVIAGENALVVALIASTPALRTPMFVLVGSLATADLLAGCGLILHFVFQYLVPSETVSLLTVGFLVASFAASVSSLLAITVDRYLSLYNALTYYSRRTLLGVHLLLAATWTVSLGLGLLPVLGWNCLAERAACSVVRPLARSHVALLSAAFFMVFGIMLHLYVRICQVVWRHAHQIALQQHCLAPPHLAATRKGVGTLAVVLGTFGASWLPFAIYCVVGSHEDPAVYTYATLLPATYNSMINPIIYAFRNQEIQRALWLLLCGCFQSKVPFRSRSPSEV

Consider `CC(C)(O)C(O)c1cc2nc(-c3cnn(CF)c3)c(N3CCN(Cc4ccccc4F)CC3)nc2cn1` (single isomer, unassigned) [Compound 707], for which the IC50 in assay [1] (procedure of Example 24) was 1 to 30 µM; in assay [2], greater than 30 µM; in assay [3] (procedure of Example 24), 0.1 to 1 µM.

`CCn1cc(-c2nc3cnc([C@H](O)C(C)(C)O)cc3nc2N2CCN(Cc3ccc(F)cc3F)CC2)cn1` (single isomer, unassigned) [Compound 575]: the values for the IC50 in assay [1] (setting [4]), in assay [2] and in assay [3] (setting [5]) were 1 to 30 µM, 21.7 µM and less than 0.1 µM, respectively.

For the compound `CC(C)(O)[C@@H](O)c1cc2nc(N3CCN(Cc4ccc(F)cc4F)CC3)c(-c3cnn(C4CC4)c3)nc2cn1` (single isomer, unassigned) [Compound 577], the results for the IC50 in assay [1] (setting [4]), in assay [2] and in assay [3] (setting [5]) were 1 to 30 µM, 13.6 µM and 0.1 to 1 µM, respectively.

For `COc1cccc(-c2nc3c(nc2N2CCN(Cc4ccc(F)cc4Cl)CC2)CCN(C(C)=O)C3)n1` [Compound 205, 1-(2-{4-[(2-chloro-4-fluorophenyl)methyl]piperazin-1-yl}-3-(6-methoxypyridin-2-yl)-5H,6H,7H,8H-pyrido[3,4-b]pyrazin-6-yl)ethan-1-one], the IC50 in assay [1] (setting [6]) lay in the range of 1 to 30 µM; in assay [3] (setting [7]), 0.1 to 1 µM.

In the case of `CC(=O)N1CCc2nc(N3CCN(Cc4cc(F)ccc4F)CC3)c(-c3ccc(F)c(N)n3)nc2C1` [Compound 581, 1-[3-(6-amino-5-fluoro-2-pyridyl)-2-{4-[(2,5-difluorophenyl)methyl]-1-piperazinyl}-5,6,7,8-tetrahydro-1,4,6-triaza-6-naphthyl]-1-ethanone], the IC50 in assay [1] (setting [4]) is 1 to 30 µM; in assay [3] (setting [5]), less than 0.1 µM.

With `COC[C@H]1CN(Cc2ccc(F)cc2F)CCN1c1nc2c(nc1-c1cnn(C)c1)CN(C(C)=O)CC2` (single isomer, unassigned) [Compound 249], the IC50 in assay [1] (setting [6]) and in assay [3] (setting [7]) was 1 to 30 µM in each case.

On to `COc1nccc(-c2nc3c(nc2N2CCC(Oc4ccc(F)cc4F)CC2)CCN(C(C)=O)C3)n1` [Compound 111, 1-{2-[4-(2,4-difluorophenoxy)piperidin-1-yl]-3-(2-methoxypyrimidin-4-yl)-5H,6H,7H,8H-pyrido[3,4-b]pyrazin-6-yl}ethan-1-one], for which the IC50 in assay [1] (setting [6]) and in assay [3] (setting [7]) was 0.1 to 1 µM each time.

In the case of `CC(C)(O)C(C)(O)c1cc2nc(N3CCN(Cc4ccccc4F)CC3)c(-c3cnn(CF)c3)nc2cn1` (stereo not shown) [Compound 622, 2-{3-[1-(fluoromethyl)-4-pyrazolyl]-2-{4-[(o-fluorophenyl)methyl]-1-piperazinyl}-1,4,6-triaza-7-naphthyl}-3-methyl-2,3-butanediol], the IC50 in assay [1] (procedure of Example 24) lay within 1 to 30 µM; in assay [3] (procedure of Example 24) it was 0.1 to 1 µM.

In the case of `COc1ccc(C(=O)N2CCN(c3nc4c(nc3-c3cnn(C)c3)CN(C(C)=O)CC4)CC2)cc1F` [Compound 282, 1-{2-[4-(3-fluoro-4-methoxybenzoyl)piperazin-1-yl]-3-(1-methyl-1H-pyrazol-4-yl)-5H,6H,7H,8H-pyrido[3,4-b]pyrazin-6-yl}ethan-1-one], the IC50 in assay [1] (procedure of Example 24) and in assay [3] (procedure of Example 24) was no less than 30 µM throughout.

Regarding `COc1ccc(CN2CCN(c3nc4c(nc3-c3cnn(C)c3)CN(C(C)=O)CC4)CC2)c(F)c1` [Compound 316, 1-(2-{4-[(2-fluoro-4-methoxyphenyl)methyl]piperazin-1-yl}-3-(1-methyl-1H-pyrazol-4-yl)-5H,6H,7H,8H-pyrido[3,4-b]pyrazin-6-yl)ethan-1-one], the IC50 in assay [1] (procedure of Example 24) fell in the range of 1 to 30 µM; in assay [3] (procedure of Example 24), 0.1 to 1 µM.

Take `CC(=O)N1CCc2nc(N3CCC(Oc4ccc(F)cc4F)CC3)c(-c3cnn(CCC#N)c3)nc2C1` [Compound 73, 3-(4-{6-acetyl-2-[4-(2,4-difluorophenoxy)piperidin-1-yl]-5H,6H,7H,8H-pyrido[3,4-b]pyrazin-3-yl}-1H-pyrazol-1-yl)propanenitrile]: the IC50 in assay [1] (setting [6]) was in the range of 1 to 30 µM; in assay [3] (setting [7]), 0.1 to 1 µM.

As for `CC(=O)N1CCc2nc(N3CCN(Cc4cccc(F)c4)CC3)c(-c3cnn(C)c3)nc2C1` [Compound 256, 1-(2-{4-[(3-fluorophenyl)methyl]piperazin-1-yl}-3-(1-methyl-1H-pyrazol-4-yl)-5H,6H,7H,8H-pyrido[3,4-b]pyrazin-6-yl)ethan-1-one], the IC50 in assay [1] (setting [6]) and in assay [3] (setting [7]) was 1 to 30 µM in each case.

With `CC(C)(O)CNc1cc2nc(-c3cnn(CF)c3)c(N3CCN(Cc4ccc(F)cc4F)CC3)nc2cn1` [Compound 757, 1-(3-{4-[(2,4-difluorophenyl)methyl]-1-piperazinyl}-2-[1-(fluoromethyl)-4-pyrazolyl]-1,4,6-triaza-7-naphthylamino)-2-methyl-2-propanol], the IC50 was in the range of 1 to 30 µM in assay [1] (procedure of Example 24) and 0.1 to 1 µM in assay [3] (procedure of Example 24).

With `COCC(O)c1cc2nc(N3CCC(Oc4ccc(F)cc4F)CC3)c(-c3cnn(C)c3)nc2cn1` (stereo not shown) [Compound 437, 1-(2-(4-(2,4-difluorophenoxy)piperidin-1-yl)-3-(1-methyl-1H-pyrazol-4-yl)pyrido[3,4-b]pyrazin-7-yl)-2-methoxyethan-1-ol], the IC50 was 1 to 30 µM in assay [1] (setting [6]) and 0.1 to 1 µM in assay [3] (setting [7]).

Consider `CC(C)(O)C(O)c1cc2nc(-c3cnn(CF)c3)c(N3CCC(=Cc4ccc(F)cc4F)CC3)nc2cn1` (single isomer, unassigned) [Compound 771], for which the IC50 in assay [1] (procedure of Example 24) and in assay [3] (procedure of Example 24) was 0.1 to 1 µM each time.

Regarding `CCn1cc(-c2nc3c(nc2N2CCC(Oc4ccc(F)cc4F)CC2)CCN(C(C)=O)C3)cn1` [Compound 220, 1-{2-[4-(2,4-difluorophenoxy)piperidin-1-yl]-3-(1-ethyl-1H-pyrazol-4-yl)-5H,6H,7H,8H-pyrido[3,4-b]pyrazin-6-yl}ethan-1-one], the IC50 in assay [1] (setting [6]) is 1 to 30 µM; in assay [3] (setting [7]), less than 0.1 µM.

Regarding `COC[C@H]1CN(Cc2ccc(F)cc2F)CCN1c1nc2ccncc2nc1-c1cnn(C)c1` (single isomer, unassigned) [Compound 238], the IC50 in assay [1] (setting [6]) and in assay [3] (setting [7]) was 1 to 30 µM in each case.

In the case of `CC(=O)N1CCc2nc(N3CCN(Cc4cnn(C)c4)CC3)c(-c3cnn(C)c3)nc2C1` [Compound 526, 1-[3-(1-methyl-4-pyrazolyl)-2-{4-[(1-methyl-4-pyrazolyl)methyl]-1-piperazinyl}-5,6,7,8-tetrahydro-1,4,6-triaza-6-naphthyl]-1-ethanone], the IC50 was 0.1 to 1 µM in assay [1] (setting [4]) and no less than 30 µM in assay [3] (setting [5]).

`CC(=O)N1CCc2nc(N3CCC(Oc4ccc(F)cc4F)CC3)c(-c3cnn4c3CN(C)CC4)nc2C1` [Compound 110, 1-{2-[4-(2,4-difluorophenoxy)piperidin-1-yl]-3-{5-methyl-4H,5H,6H,7H-pyrazolo[1,5-a]pyrazin-3-yl}-5H,6H,7H,8H-pyrido[3,4-b]pyrazin-6-yl}ethan-1-one]: the IC50 in assay [1] (setting [6]) and in assay [3] (setting [7]) was 1 to 30 µM each time.

`CC(=O)N1CCc2nc(N3CCC(Oc4ccc(F)cc4F)CC3)c(-c3cccc(OC4CCC4)n3)nc2C1` [Compound 30, 1-[3-(6-cyclobutoxypyridin-2-yl)-2-[4-(2,4-difluorophenoxy)piperidin-1-yl]-5H,6H,7H,8H-pyrido[3,4-b]pyrazin-6-yl]ethan-1-one]: the IC50 in assay [1] (setting [8]) and in assay [3] (setting [8]) was 1 to 30 µM throughout.

On to `CC(C)(O)COc1cc2nc(-c3cnn(CF)c3)c(N3CCN(Cc4ccc(F)cc4F)CC3)nc2cn1` [Compound 798, 1-(3-{4-[(2,4-difluorophenyl)methyl]-1-piperazinyl}-2-[1-(fluoromethyl)-4-pyrazolyl]-1,4,6-triaza-7-naphthyloxy)-2-methyl-2-propanol], for which the half-maximal inhibitory concentration (IC50) in assay [1] (procedure of Example 24) lay within 1 to 30 µM; in assay [3] (procedure of Example 24) it was 0.1 to 1 µM.

As for `CC(=O)N1CCc2nc(N3CC=CCC3)c(-c3cnn(C)c3)nc2C1` [Compound 422, 1-[3-(1-methyl-1H-pyrazol-4-yl)-2-(1,2,3,6-tetrahydropyridin-1-yl)-5H,6H,7H,8H-pyrido[3,4-b]pyrazin-6-yl]ethan-1-one], the half-inhibitory concentration (IC50) in assay [1] (setting [6]) is 1 to 30 µM; in assay [3] (setting [7]), no less than 30 µM.

With `COc1ccc(C(=O)N2CCN(c3nc4c(nc3-c3cnn(C)c3)CN(C(C)=O)CC4)CC2)cc1` [Compound 283, 1-{2-[4-(4-methoxybenzoyl)piperazin-1-yl]-3-(1-methyl-1H-pyrazol-4-yl)-5H,6H,7H,8H-pyrido[3,4-b]pyrazin-6-yl}ethan-1-one], the IC50 in assay [1] (procedure of Example 24) and in assay [3] (procedure of Example 24) was 1 to 30 µM in each case.

In general, IC50 refers to the concentration that inhibits the measured activity by half.

These data come from patent publication US20260042755A1, “GPR6 INVERSE AGONISTS” (MapLight Therapeutics, Inc., priority 2022, published 2026).
